What all share (assay): NCI anticancer screen, dose series, 48 h
Assay [1] deals with A549 NSCLC.
Assay [2] has as its system EKVX NSCLC.
The subject of assay [3] is HCC-2998 colon.
Assay [4] relates to HL-60(TB) leukemia.
Assay [5] deals with HOP-62 NSCLC.
For assay [6], the system named is IGROV1 ovarian.
The subject of assay [7] is M14 melanoma.
For assay [8], the system named is NCI-H23 lung.
Assay [9] concerns SF-295 CNS.
For assay [10], the system named is SN12C renal.
Assay [11] relates to U251 CNS.
The test system of assay [12] is MCF7 breast.
The subject of assay [13] is PC-3 prostate.

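Results reflect a 48-hour exposure of cells in 96-well plates to compound at five concentrations. At the TGI there is no net growth.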

For `COc1cc2c(oc(=O)c3cc4ccoc4c(OC)c32)c2cccc(O)c12`, the TGI in assay [1], in [2], in assay [3], in assay [4], in assay [5] and in [6] was > 100 µM in each case. Moreover, the TGI in [7], in [8], in assay [9], in [10] and in assay [11] was > 100 µM in each case.

Consider `Nc1ccc(C(=O)NN2C(=O)C(Cl)C2c2ccc([N+](=O)[O-])cc2)cc1` (stereo not given), for which the TGI stood at 25.8 µM in [1]; 24.4 µM in [2]; 21.2 µM in [3]; 4.65 µM in assay [4]; 23.2 µM in assay [5]; 16.6 µM in assay [6]. The TGI in assay [7] came out at 26.5 µM; in [8], 35.6 µM; in assay [9], 28.3 µM; in [10], 30 µM; in assay [11], 5.28 µM.

As to `O/N=C1/CCCCCC1NO` (stereo not given), the TGI in [1], in assay [2], in assay [3], in [5], in assay [6] and in [7] was > 100 µM throughout. Further, the TGI in assay [12], in assay [8], in assay [13], in [9], in assay [10] and in assay [11] was > 100 µM in each case.

As to `C[C@@H]1OC(=O)C[C@H]2CC(=O)N(CCC3CN(S(=O)(=O)C(F)(F)F)c4ccc(Cc5ccc6c(c5)C(CCN5C[C@H]7[C@@H](CC(=O)O[C@H]7C)CC5=O)CN6S(=O)(=O)C(F)(F)F)cc43)C[C@@H]21` (stereo not given in full), the TGI in [1], in assay [2], in assay [3], in assay [5], in [7] and in assay [12] was > 100 µM each time. The TGI in assay [8], in assay [13], in assay [9] and in assay [11] was > 100 µM throughout.

`CC(C)C(Sc1nc(-c2ccccc2)c(-c2ccccc2)[nH]1)C(=O)N/N=C/c1ccc([N+](=O)[O-])cc1` (stereo not given): the TGI in [1] came out at 66.3 µM; in assay [2] it was 65.6 µM; in assay [4], 33.5 µM; in assay [5], 37.8 µM; in assay [6], 42.2 µM; in assay [7], 21.6 µM. The TGI in [8] was 55.6 µM; in [9] it was 33.9 µM; in assay [10], 25.9 µM; in assay [11], 29.8 µM.

Take `Cc1nc2c(n1CCC(C)C)C(=O)c1ccccc1C2=O`: the TGI in assay [1] was > 100 µM; in [2], 92 µM; in assay [3], > 100 µM; in assay [4], 28.1 µM; in assay [5], 50.7 µM; in assay [6], 58.9 µM. The TGI in assay [7] was 38 µM; in [8], 44.9 µM; in assay [9] it was 67.3 µM; in [10] it was 64.3 µM; in assay [11], 60.4 µM.

For `Cn1c(=O)c2c(ncn2CCSS(=O)(=O)O)n(C)c1=O`, the TGI in [1], in [2], in assay [5], in [6], in assay [7] and in assay [12] was > 100 µM throughout. In addition, the TGI in assay [8], in assay [13], in [9], in assay [10] and in [11] was > 100 µM throughout.

Take `CNC(=O)c1n[nH]n(Cc2ccccc2)c1=S`: the TGI in assay [1], in assay [2], in assay [3], in [5], in assay [6] and in assay [7] was > 100 µM in each case. The TGI in [12], in assay [8], in assay [13], in assay [9], in assay [10] and in assay [11] was > 100 µM each time.

On to `CC(C)[Si](OCC1CC(C[C@H]2CC(C[C@H]3C[C@@H](CO[Si](C(C)C)(C(C)C)C(C)C)OC(C)(C)O3)OC(C)(C)O2)OC(C)(C)O1)(C(C)C)C(C)C` (stereo not given in full), for which the TGI in [1], in assay [2], in assay [3], in [4], in [5] and in [6] was > 100 µM throughout. Also, the TGI in [7], in [8], in assay [9] and in [11] was > 100 µM each time.

Consider `c1cc2cc(c1)CN1CCNCCN(CCNCC1)Cc1cccc(c1)CN1CCNCCN(CCNCC1)C2`, for which the TGI in [1], in assay [2], in [3], in [5], in assay [6] and in [7] was > 100 µM in each case. The TGI in [12], in assay [8], in assay [13], in assay [9], in assay [10] and in [11] was > 100 µM in each case.

Regarding `O=C(Nc1nncs1)NS(=O)(=O)n1cnc2ccccc21`, the TGI in assay [1], in [2], in assay [3], in [4], in assay [5] and in assay [6] was > 100 µM each time. Besides, the TGI in assay [7], in assay [8], in [13], in assay [9], in assay [10] and in assay [11] was > 100 µM in each case.

`NC(CCCNc1cccc(O)c1)C(=O)O` (stereo not given): the TGI in assay [1], in assay [2], in assay [4], in assay [5], in assay [7] and in [9] was > 100 µM in each case. Besides, the TGI in assay [10] and in [11] was > 100 µM throughout.

For the origin of these results see PubChem BioAssay (NCI).
